Measured values published in article PMC12529164, “Design, Synthesis, Structure–Activity Relationships, and Preliminary Anticancer Properties of Menthol-Modified Coumarin Esters and 3,4-Dihydrocoumarin Derivatives” (ACS Omega, 2025).

Legend:
[1] = tested on: MDA-MB-231; assay: MTT cytotoxicity assay; type: cell-based, human; settings: for IC50: MDA-MB-231, MTT, 72 h, human breast adenocarcinoma; for SI MDA-MB-231: SI = IC50 for normal cell line (HaCaT)/IC50 cancer cell line
Method: (§1) The human primary (SW480) and metastatic (SW620) colon cancer, metastatic prostate cancer (PC3), breast adenocarcinoma (MDA-MB-231) and human immortal keratinocyte (HaCaT) cell lines were recruited from the American Type Culture Collection (ATCC). The cells were cultured in the recommended medium according to protocols (RPMI 1640 for PC3, MEM for SW480 and SW620, as well as DMEM for MDA-MB-231 and HaCaT cells) with addition of 10% FBS, penicillin (100 U/mL), and streptomycin (100 μg/mL) and cultured in 37 °C/5% CO2 in a humidified incubator. Then, the cells were passaged at a confluence of 80–90% by a treatment with 0.25% trypsin (Gibco Life Technologies) and used for studies.
(§2) They were added to 96-well plates with seeded normal and cancer cells (1 × 10^4 cells per well) and incubated for 72 h. MTT analysis was performed according to a previous study.

[2] = tested on: PC3; assay: MTT cytotoxicity assay; type: cell-based, human; settings: for IC50: PC-3, MTT, 72 h, human metastatic prostate cancer; for SI PC3: SI = IC50 for normal cell line (HaCaT)/IC50 cancer cell line
Method: as §1, §2

[3] = tested on: SW480; assay: MTT cytotoxicity assay; type: cell-based, human; settings: for SI SW480: SI = IC50 for normal cell line (HaCaT)/IC50 cancer cell line; for IC50: SW480, MTT, 72 h, human primary colon cancer
Method: as §1, §2

[4] = tested on: SW620; assay: MTT cytotoxicity assay; type: cell-based, human; settings: for SI SW620: SI = IC50 for normal cell line (HaCaT)/IC50 cancer cell line; for IC50: SW-620, MTT, 72 h, human metastatic colon cancer
Method: as §1, §2

[5] = tested on: HaCaT; assay: MTT cytotoxicity assay, normal cells; type: cell-based; settings: HaCaT, 72 h, human immortal keratinocytes (normal cells)
Method: as §1, §2

[6] = tested on: tested cancer cell lines (SW480, SW620, PC3, MDA-MB-231); assay: MTT assay, mean over tested cancer cell lines; type: cell-based; settings: Homo sapiens; Table S7; mean of the four cancer cell lines, >100 entered as 100; read-out: mean anticancer IC50
Method: They were added to 96-well plates with seeded normal and cancer cells (1 × 10^4 cells per well) and incubated for 72 h. MTT analysis was performed according to a previous study. […]

[7] = tested on: Danio rerio larvae; assay: In vivo toxicity, maximum tolerated concentration; settings: zebrafish larvae, immersion from 96 hpf for 18 h (120 hpf), 5-150 μM tested
Method: Zebrafish (Danio rerio, strain AB) was maintained at the Experimental Medicine Center, Medical University of Lublin, Poland. Embryos and larvae up to 120 h postfertilization (hpf) were kept under generally accepted environmental conditions, i.e., in incubators at 28.5 °C, with 14/10 h light/dark cycles. The embryos of the Zebrafish were harvested after the natural reproduction process.
Three compounds showing low IC50 values determined on cancer lines in in vitro tests (2b, 4a) and compound 1a characterized by low cytotoxicity were used for in vivo tests. We also conducted research for coumarin. These compounds were dissolved in dimethyl sulfoxide (DMSO) (Sigma-Aldrich, St. Louis, MO, USA) and diluted in the zebrafish medium (pH 7.1–7.3; 5.0 mM NaCl, 0.17 mM KCl, 0.33 mM CaCl2, 0.33 mM MgSO4) to achieve a final DMSO concentration of 1% w/v. Twenty-four hpf zebrafish embryos were investigated under a light microscope, and […] fertilized embryos (n = 60) were selected and transferred into 48-well plates (5 embryos per well). Larvae were incubated in 1 mL of the zebrafish medium for up to 3 days after fertilization.
On the fourth day postfertilization (96 hpf), the larvae (10 individuals per group) were incubated in solutions of coumarin or its three derivatives (1a, 2b, 4a) at selected concentrations (5, 10, 25, 50, 75, 100, 150 μM), along with control solutions: negative control (zebrafish medium) and solvent control (1% DMSO in zebrafish medium). The maximum tolerated concentration (MTC) was calculated to assess the toxicity of the compounds and extracts. […] Larvae were individually inspected under a microscope for signs of acute locomotor dysfunction, including a weak reaction to light tail stimulation with a fine needle, disrupted posture, body deformities, protruding eyes, slowed or absent heartbeat, and mortality.

CCOC(=O)C1C(=O)Oc2ccccc2C1P(=O)(OCC)OCC (stereo not shown) [Compound 4d, Ethyl 4-(diethoxyphosphoryl)-2-oxochroman-3-carboxylate]
IC50 [1]: > 100 µM | SI MDA-MB-231 [1]: 1 | IC50 [2]: > 100 µM | SI PC3 [2]: 1 | SI SW480 [3]: 1 | IC50 [3]: > 100 µM | SI SW620 [4]: 1 | IC50 [4]: > 100 µM | IC50 [5]: > 100 µM | IC50 [6]: > 100 µM

CCOP(=O)(OCC)C1C(=O)Oc2ccccc2C1P(=O)(c1ccccc1)c1ccccc1 (stereo not shown) [Compound 5a, Diethyl (4-(Diphenylphosphoryl)-2-oxochroman-3-yl)phosphonate]
IC50 [1]: > 100 µM | SI MDA-MB-231 [1]: 1 | IC50 [2]: > 100 µM | SI PC3 [2]: 1 | SI SW480 [3]: 1 | IC50 [3]: > 100 µM | SI SW620 [4]: 1 | IC50 [4]: > 100 µM | IC50 [5]: > 100 µM | IC50 [6]: > 100 µM

CCOP(=O)(OCC)C1C(=O)Oc2c(OC)cccc2C1P(=O)(c1ccccc1)c1ccccc1 (stereo not shown) [Compound 5b, Diethyl (4-(Diphenylphosphoryl)-8-methoxy-2-oxochroman-3-yl)phosphonate]
IC50 [1]: > 100 µM | SI MDA-MB-231 [1]: 1 | IC50 [2]: > 100 µM | SI PC3 [2]: 1 | SI SW480 [3]: 1 | IC50 [3]: > 100 µM | SI SW620 [4]: 1 | IC50 [4]: > 100 µM | IC50 [5]: > 100 µM | IC50 [6]: > 100 µM

O=c1ccc2ccccc2o1 [coumarin, 2H-chromen-2-one]
maximum tolerated concentration (MTC) [7]: 100 µM
